Source: ChEMBL document CHEMBL3526033, “Identification of human liver cytochrome P450 enzymes involved in the metabolism of SCH 530348 (Vorapaxar), a potent oral thrombin protease-activated receptor 1 antagonist” (Drug Metab Dispos, 2011)
One block for each molecule: values may come before it.

Legend:
Assay type in all cases: ADME
[1] = target: T1, Cytochrome P450 2E1 (Homo sapiens, UniProt P05181); test: Activity of human recombinant CYP2E1 assessed as enzyme-mediated 2-hydroxyethyl (1R,3aR,4aR,6R,8aR,9S,9aS)-9-((E)-2-(5-(3-fluorophenyl)pyridin-2-yl)vinyl)-1-methyl-3-oxododecahydronaphtho[2,3-c]furan-6-ylcarbamate formation at 25 uM after 120 mins by LC-MS/MS analysis in presence of NADPH; conditions: 2 h
T1 sequence (P05181 whole entry): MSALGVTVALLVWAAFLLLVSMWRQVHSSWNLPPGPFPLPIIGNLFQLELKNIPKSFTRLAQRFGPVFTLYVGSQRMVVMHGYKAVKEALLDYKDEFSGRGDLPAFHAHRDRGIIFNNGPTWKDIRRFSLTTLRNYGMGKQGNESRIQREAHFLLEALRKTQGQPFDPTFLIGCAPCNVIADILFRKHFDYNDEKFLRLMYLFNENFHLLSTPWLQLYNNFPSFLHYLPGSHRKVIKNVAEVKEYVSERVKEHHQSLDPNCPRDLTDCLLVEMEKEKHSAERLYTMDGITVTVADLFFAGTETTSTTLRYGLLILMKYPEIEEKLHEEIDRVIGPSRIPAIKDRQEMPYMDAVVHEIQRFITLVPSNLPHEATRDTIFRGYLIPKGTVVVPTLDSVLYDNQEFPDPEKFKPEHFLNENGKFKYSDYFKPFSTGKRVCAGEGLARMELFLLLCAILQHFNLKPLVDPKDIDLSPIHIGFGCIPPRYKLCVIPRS

[2] = target: T2, Cytochrome P450 4F3 (Homo sapiens, UniProt Q08477); test: Activity of human recombinant CYP4F3A assessed as enzyme-mediated 2-hydroxyethyl (1R,3aR,4aR,6R,8aR,9S,9aS)-9-((E)-2-(5-(3-fluorophenyl)pyridin-2-yl)vinyl)-1-methyl-3-oxododecahydronaphtho[2,3-c]furan-6-ylcarbamate formation at 25 uM after 120 mins by LC-MS/MS analysis in presence of NADPH; conditions: 2 h
T2 sequence (Q08477 whole entry): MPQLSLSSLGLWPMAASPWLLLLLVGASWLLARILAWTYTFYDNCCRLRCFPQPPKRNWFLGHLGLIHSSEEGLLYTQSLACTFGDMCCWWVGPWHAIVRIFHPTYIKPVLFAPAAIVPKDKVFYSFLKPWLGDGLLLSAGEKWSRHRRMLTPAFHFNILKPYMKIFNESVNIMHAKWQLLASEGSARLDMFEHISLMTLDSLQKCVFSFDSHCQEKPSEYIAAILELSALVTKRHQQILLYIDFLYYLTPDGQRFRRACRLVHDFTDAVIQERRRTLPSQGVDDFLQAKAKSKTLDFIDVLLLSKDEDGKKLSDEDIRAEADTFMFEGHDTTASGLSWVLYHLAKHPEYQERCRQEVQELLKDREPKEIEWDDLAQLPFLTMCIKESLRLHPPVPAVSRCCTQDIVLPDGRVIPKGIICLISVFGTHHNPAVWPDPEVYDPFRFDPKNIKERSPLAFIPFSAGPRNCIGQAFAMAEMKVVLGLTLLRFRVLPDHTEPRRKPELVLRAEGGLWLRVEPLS

[3] = target: T3, Cytochrome P450 4F12 (Homo sapiens, UniProt Q9HCS2); test: Activity of human recombinant CYP4F12 assessed as enzyme-mediated 2-hydroxyethyl (1R,3aR,4aR,6R,8aR,9S,9aS)-9-((E)-2-(5-(3-fluorophenyl)pyridin-2-yl)vinyl)-1-methyl-3-oxododecahydronaphtho[2,3-c]furan-6-ylcarbamate formation at 25 uM after 120 mins by LC-MS/MS analysis in presence of NADPH; conditions: 2 h
T3 sequence (Q9HCS2 whole entry): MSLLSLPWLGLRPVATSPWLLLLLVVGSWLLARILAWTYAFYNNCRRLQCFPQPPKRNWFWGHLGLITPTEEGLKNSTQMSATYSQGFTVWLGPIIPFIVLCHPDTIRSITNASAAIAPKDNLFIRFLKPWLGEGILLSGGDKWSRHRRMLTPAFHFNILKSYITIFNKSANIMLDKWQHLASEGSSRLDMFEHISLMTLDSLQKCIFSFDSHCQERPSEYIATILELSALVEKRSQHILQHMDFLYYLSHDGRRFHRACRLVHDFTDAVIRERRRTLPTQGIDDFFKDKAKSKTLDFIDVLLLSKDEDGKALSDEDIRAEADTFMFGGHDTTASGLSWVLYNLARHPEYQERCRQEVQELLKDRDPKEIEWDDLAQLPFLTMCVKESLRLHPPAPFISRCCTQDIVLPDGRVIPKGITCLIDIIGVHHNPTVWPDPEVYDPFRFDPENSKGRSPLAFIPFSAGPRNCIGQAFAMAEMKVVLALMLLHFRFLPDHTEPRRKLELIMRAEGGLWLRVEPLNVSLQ

[4] = system: Liver microsome; test: Drug metabolism in human liver microsomes assessed as (3R,3aS,4S,4aR,7R,8aR,9aR)-7-amino-4-((E)-2-(5-(3-fluorophenyl)pyridin-2-yl)vinyl)-3-methyldecahydronaphtho[2,3-c]furan-1(3H)-one formation per nmol of enzyme at 25 uM after 120 mins by LC-MS/MS analysis; conditions: 2 h
[5] = target: T4, Cytochrome P450 1A2 (Homo sapiens, UniProt P05177); test: Activity of human recombinant CYP1A2 assessed as enzyme-mediated drug metabolism treated with 25 uM vorapaxar after 120 mins by LC-MS/MS analysis in presence of NADPH; conditions: 2 h
T4 sequence (P05177 whole entry): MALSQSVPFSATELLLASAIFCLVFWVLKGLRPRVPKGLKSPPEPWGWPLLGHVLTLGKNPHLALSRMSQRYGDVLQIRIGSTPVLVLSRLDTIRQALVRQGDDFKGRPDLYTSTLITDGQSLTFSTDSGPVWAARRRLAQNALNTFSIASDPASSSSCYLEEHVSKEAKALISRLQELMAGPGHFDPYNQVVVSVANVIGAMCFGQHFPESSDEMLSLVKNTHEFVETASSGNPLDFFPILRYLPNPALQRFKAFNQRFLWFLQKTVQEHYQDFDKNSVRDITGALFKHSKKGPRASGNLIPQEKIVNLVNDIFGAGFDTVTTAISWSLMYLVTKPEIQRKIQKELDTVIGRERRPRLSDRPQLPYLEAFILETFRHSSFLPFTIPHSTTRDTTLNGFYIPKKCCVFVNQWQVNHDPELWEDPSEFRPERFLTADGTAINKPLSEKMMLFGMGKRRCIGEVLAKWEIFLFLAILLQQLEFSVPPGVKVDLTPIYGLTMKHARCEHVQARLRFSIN

[6] = target: T3, Cytochrome P450 4F12; test: Activity of human recombinant CYP4F12 assessed as enzyme-mediated drug metabolism treated with 25 uM vorapaxar after 120 mins by LC-MS/MS analysis in presence of NADPH; conditions: 2 h
[7] = target: T1, Cytochrome P450 2E1; test: Activity of human recombinant CYP2E1 assessed as enzyme-mediated drug metabolism treated with 25 uM vorapaxar after 120 mins by LC-MS/MS analysis in presence of NADPH; conditions: 2 h
[8] = target: Cytochrome P450 3A5 (Homo sapiens, UniProt P20815); test: Activity of human recombinant CYP3A5 assessed as enzyme-mediated drug metabolism treated with 25 uM vorapaxar after 120 mins by LC-MS/MS analysis in presence of NADPH; conditions: 2 h
Cytochrome P450 3A5, sequence (P20815 whole entry): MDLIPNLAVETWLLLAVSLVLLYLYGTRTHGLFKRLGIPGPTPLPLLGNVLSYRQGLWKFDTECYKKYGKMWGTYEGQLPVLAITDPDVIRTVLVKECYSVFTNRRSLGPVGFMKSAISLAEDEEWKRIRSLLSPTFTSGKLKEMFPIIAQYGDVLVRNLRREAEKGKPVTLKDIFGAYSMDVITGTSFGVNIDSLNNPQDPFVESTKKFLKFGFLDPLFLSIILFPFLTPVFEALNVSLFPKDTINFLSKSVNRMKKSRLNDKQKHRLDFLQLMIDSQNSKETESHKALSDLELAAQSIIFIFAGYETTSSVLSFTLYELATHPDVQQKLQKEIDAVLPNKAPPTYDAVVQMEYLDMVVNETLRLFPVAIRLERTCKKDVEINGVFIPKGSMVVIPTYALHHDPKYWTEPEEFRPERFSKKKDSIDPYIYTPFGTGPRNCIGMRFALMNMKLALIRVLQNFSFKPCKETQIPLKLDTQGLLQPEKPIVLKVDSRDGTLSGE

[9] = system: Liver microsome; test: Drug metabolism in human liver microsomes assessed as 2-hydroxyethyl (1R,3aR,4aR,6R,8aR,9S,9aS)-9-((E)-2-(5-(3-fluorophenyl)pyridin-2-yl)vinyl)-1-methyl-3-oxododecahydronaphtho[2,3-c]furan-6-ylcarbamate formation at 25 uM after 120 mins by LC-MS/MS analysis in presence of NADPH; conditions: 2 h
[10] = system: Liver microsome; test: Drug metabolism in human liver microsomes assessed as (3R,3aS,4S,4aR,7R,8aR,9aR)-7-amino-4-((E)-2-(5-(3-fluorophenyl)pyridin-2-yl)vinyl)-3-methyldecahydronaphtho[2,3-c]furan-1(3H)-one formation at 10 to 25 uM after 120 mins by LC-MS/MS analysis in presence of ketoconazole; conditions: 2 h
[11] = target: CYP2C9 (Homo sapiens, UniProt P11712); test: Activity of human recombinant CYP2C9 assessed as enzyme-mediated drug metabolism at 10 uM after 120 mins by LC-MS/MS analysis in presence of NADPH; conditions: read-out: Compound recovery
CYP2C9, sequence (P11712 whole entry): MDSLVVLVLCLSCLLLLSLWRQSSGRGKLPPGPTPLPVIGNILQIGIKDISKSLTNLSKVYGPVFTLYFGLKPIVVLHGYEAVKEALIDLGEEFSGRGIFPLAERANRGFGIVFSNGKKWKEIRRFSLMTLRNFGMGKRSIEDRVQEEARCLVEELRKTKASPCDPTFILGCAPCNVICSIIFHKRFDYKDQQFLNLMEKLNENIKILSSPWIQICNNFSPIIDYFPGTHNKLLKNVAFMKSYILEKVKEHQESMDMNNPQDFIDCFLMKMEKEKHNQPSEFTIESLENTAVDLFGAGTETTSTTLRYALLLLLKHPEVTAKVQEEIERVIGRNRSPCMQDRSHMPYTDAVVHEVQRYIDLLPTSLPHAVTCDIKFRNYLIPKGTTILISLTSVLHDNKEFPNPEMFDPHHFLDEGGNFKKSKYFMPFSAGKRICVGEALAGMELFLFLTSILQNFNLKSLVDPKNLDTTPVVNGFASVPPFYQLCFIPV

- Drug metabolism [1]: metabolite_detected
- Drug metabolism [2]: metabolite_detected
- Drug metabolism [3]: metabolite_detected
- Vmax [4]: 30 pmol/min
SMILES: CCOC(=O)N[C@@H]1CC[C@@H]2[C@@H](C1)C[C@H]1C(=O)O[C@H](C)[C@H]1[C@H]2/C=[14CH]/c1ccc(-c2cccc(F)c2)cn1

- Drug metabolism [5]: metabolite_detected
- Drug metabolism [6]: metabolite_detected
- Drug metabolism [7]: metabolite_detected
- Drug metabolism [8]: metabolite_detected
SMILES: C[C@H]1OC(=O)[C@@H]2C[C@@H]3C[C@H](NC(=O)OCCO)CC[C@H]3[C@H](/C=C/c3ccc(-c4cccc(F)c4)cn3)[C@H]12

- Vmax [9]: 0.4 pmol/min
- Drug metabolism [10]: metabolite_not_detected
- remaining at 2 h, 10 µM [11]: 98.8%
SMILES: CCOC(=O)N[C@@H]1CC[C@@H]2[C@@H](C1)C[C@H]1C(=O)O[C@H](C)[C@H]1[C@H]2/C=C/c1ccc(-c2cccc(F)c2)cn1 [VORAPAXAR]
